Assay results from the supplement of paper PMC10307832.

What was measured:
Assay in all cases: relative viability (nuclei count vs DMSO), 5 days (fraction); higher = more cells survive
NCI-H23 = test system: NCI-H23
Outline: (§1)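 Lung cancer cell lines were pin-tool dosed in 1536-well plates on the day after seeding, with either a lone drug or a fixed anchor-drug dose plus five library-drug doses (not always all listed) in √10 steps. Nuclei were counted on 4× images after 5 days. Relative viability is the ratio of treated-well to vehicle-well nuclei counts, with each value a median of duplicate plates.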

LU99A = test system: LU99A
Outline: as §1

NCI-H650 = test system: NCI-H650
Outline: as §1

PC-3 [JPC-3] = test system: PC-3 [JPC-3]
Outline: as §1

COR-L23 = test system: COR-L23
Outline: as §1

NCI-H1651 = test system: NCI-H1651
Outline: as §1

NCI-H2085 = test system: NCI-H2085
Outline: as §1

HCC-366 = test system: HCC-366
Outline: as §1

NCI-H1793 = test system: NCI-H1793
Outline: as §1

HCC-78 = test system: HCC-78
Outline: as §1

H3255 = test system: H3255
Outline: as §1

HARA = test system: HARA
Outline: as §1

NCI-H460 = test system: NCI-H460
Outline: as §1

NCI-H358 = test system: NCI-H358
Outline: as §1

201T = test system: 201T
Outline: as §1

SK-LU-1 = test system: SK-LU-1
Outline: as §1

NCI-H3122 = test system: NCI-H3122
Outline: as §1

NCI-H2087 = test system: NCI-H2087
Outline: as §1

NCI-H596 = test system: NCI-H596
Outline: as §1

NCI-H322M = test system: NCI-H322M
Outline: as §1

NCI-H1755 = test system: NCI-H1755
Outline: as §1

Nc1cccc2c1CN(C1CCC(=O)NC1=O)C2=O (stereo not drawn) [Lenalidomide] + Cc1nc(NC(=O)N2CCC[C@H]2C(N)=O)sc1-c1ccnc(C(C)(C)C(F)(F)F)c1 [Alpelisib] (partner 2 µM)
relative viability (NCI-H23; first compound 0.253 µM): 0.792 | relative viability (NCI-H23; first compound 0.8 µM): 0.581 | relative viability (NCI-H23; first compound 2.53 µM): 0.846 | relative viability (NCI-H23; first compound 8 µM): 0.47 | relative viability (LU99A; first compound 0.253 µM): 0.47 | relative viability (LU99A; first compound 0.8 µM): 0.501 | relative viability (LU99A; first compound 2.53 µM): 0.501 | relative viability (LU99A; first compound 8 µM): 0.317 | relative viability (NCI-H650; first compound 0.253 µM): 1.22 | relative viability (NCI-H650; first compound 2.53 µM): 1.41 | relative viability (NCI-H650; first compound 8 µM): 1.15 | relative viability (PC-3 [JPC-3]; first compound 0.253 µM): 0.992 | relative viability (PC-3 [JPC-3]; first compound 0.8 µM): 0.981 | relative viability (PC-3 [JPC-3]; first compound 2.53 µM): 1.09 | relative viability (PC-3 [JPC-3]; first compound 8 µM): 1.05 | relative viability (COR-L23; first compound 0.253 µM): 0.798 | relative viability (COR-L23; first compound 0.8 µM): 0.794 | relative viability (COR-L23; first compound 2.53 µM): 0.784 | relative viability (COR-L23; first compound 8 µM): 0.875 | relative viability (NCI-H1651; first compound 0.253 µM): 0.894 | relative viability (NCI-H1651; first compound 0.8 µM): 1.14 | relative viability (NCI-H1651; first compound 2.53 µM): 1.04 | relative viability (NCI-H1651; first compound 8 µM): 1.07 | relative viability (NCI-H2085; first compound 0.253 µM): 1.01 | relative viability (NCI-H2085; first compound 0.8 µM): 0.997 | relative viability (NCI-H2085; first compound 2.53 µM): 0.952 | relative viability (NCI-H2085; first compound 8 µM): 0.972 | relative viability (HCC-366; first compound 0.253 µM): 0.402 | relative viability (HCC-366; first compound 0.8 µM): 0.336 | relative viability (HCC-366; first compound 2.53 µM): 0.549 | relative viability (HCC-366; first compound 8 µM): 0.324 | relative viability (NCI-H1793; first compound 0.253 µM): 0.858 | relative viability (NCI-H1793; first compound 0.8 µM): 0.828 | relative viability (NCI-H1793; first compound 2.53 µM): 0.673 | relative viability (NCI-H1793; first compound 8 µM): 0.57 | relative viability (HCC-78; first compound 0.253 µM): 0.381 | relative viability (HCC-78; first compound 0.8 µM): 0.339 | relative viability (HCC-78; first compound 2.53 µM): 0.314 | relative viability (HCC-78; first compound 8 µM): 0.209 | relative viability (H3255; first compound 0.253 µM): 0.664 | relative viability (H3255; first compound 0.8 µM): 0.682 | relative viability (H3255; first compound 2.53 µM): 0.916 | relative viability (H3255; first compound 8 µM): 0.584 | relative viability (HARA; first compound 0.253 µM): 0.782 | relative viability (HARA; first compound 0.8 µM): 0.771 | relative viability (HARA; first compound 2.53 µM): 0.921 | relative viability (HARA; first compound 8 µM): 0.743 | relative viability (NCI-H460; first compound 0.253 µM): 0.363 | relative viability (NCI-H460; first compound 0.8 µM): 0.492 | relative viability (NCI-H460; first compound 2.53 µM): 0.667 | relative viability (NCI-H460; first compound 8 µM): 0.57 | relative viability (NCI-H358; first compound 0.253 µM): 0.902 | relative viability (NCI-H358; first compound 0.8 µM): 0.834 | relative viability (NCI-H358; first compound 2.53 µM): 0.838 | relative viability (NCI-H358; first compound 8 µM): 1.06 | relative viability (201T; first compound 0.253 µM): 1.11 | relative viability (201T; first compound 0.8 µM): 1.15 | relative viability (201T; first compound 2.53 µM): 1.06 | relative viability (201T; first compound 8 µM): 0.984 | relative viability (SK-LU-1; first compound 0.253 µM): 0.913 | relative viability (SK-LU-1; first compound 0.8 µM): 0.999 | relative viability (SK-LU-1; first compound 2.53 µM): 1.29 | relative viability (SK-LU-1; first compound 8 µM): 1.07 | relative viability (NCI-H3122; first compound 0.253 µM): 0.779 | relative viability (NCI-H3122; first compound 0.8 µM): 0.961 | relative viability (NCI-H3122; first compound 2.53 µM): 0.797 | relative viability (NCI-H3122; first compound 8 µM): 0.659 | relative viability (NCI-H2087; first compound 0.253 µM): 0.996 | relative viability (NCI-H2087; first compound 0.8 µM): 0.945 | relative viability (NCI-H2087; first compound 2.53 µM): 1.17 | relative viability (NCI-H2087; first compound 8 µM): 1.08 | relative viability (NCI-H596; first compound 0.253 µM): 0.574 | relative viability (NCI-H596; first compound 0.8 µM): 0.452 | relative viability (NCI-H596; first compound 2.53 µM): 0.481 | relative viability (NCI-H596; first compound 8 µM): 0.497 | relative viability (NCI-H322M; first compound 0.253 µM): 0.745 | relative viability (NCI-H322M; first compound 0.8 µM): 0.887 | relative viability (NCI-H322M; first compound 2.53 µM): 0.837 | relative viability (NCI-H322M; first compound 8 µM): 0.66 | relative viability (NCI-H1755; first compound 0.253 µM): 0.865 | relative viability (NCI-H1755; first compound 0.8 µM): 0.913 | relative viability (NCI-H1755; first compound 2.53 µM): 0.985 | relative viability (NCI-H1755; first compound 8 µM): 0.8
